Numbers after ± are expanded uncertainties.
Columns and labels:
[1] = for surface tension liquid-gas: Maximal bubble pressure; for mass density: 101.33 kPa, Vibrating tube method
[2] = refractive index (Na D-line) (dimensionless); details: 298.15 K; 101.33 kPa; Liquid; Standard Abbe refractometry
[3] = xn = mol fraction of the nth substance listed; details: 298.15 K, 101 kPa, Liquid, Vibrating tube method

## Cc1ccc(C)o1 [2,5-dimethylfuran]
[1]; 293.15 K
  surface tension liquid-gas: 25.42 ± 0.27 mN/m
[1]; 293.15 K, Liquid
  mass density: 901.18 ± 0.08 kg/m3
[1]; 298.15 K, Liquid
  mass density: 895.7 ± 0.08 kg/m3
[1]; 303.15 K
  surface tension liquid-gas: 24.04 ± 0.26 mN/m
[1]; 303.15 K, Liquid
  mass density: 890.37 ± 0.08 kg/m3
[1]; 313.15 K
  surface tension liquid-gas: 22.73 ± 0.26 mN/m
[1]; 313.15 K, Liquid
  mass density: 879.43 ± 0.08 kg/m3
[1]; 323.15 K
  surface tension liquid-gas: 21.41 ± 0.26 mN/m
[1]; 323.15 K, Liquid
  mass density: 868.36 ± 0.09 kg/m3
[1]; 331.46 K, Liquid, Ebulliometric method (Recirculating still)
  vapor or sublimation pressure: 30.01 ± 0.08 kPa
[1]; 333.15 K
  surface tension liquid-gas: 20.22 ± 0.25 mN/m
[1]; 333.15 K, Liquid
  mass density: 857.1 ± 0.09 kg/m3
[1]; 335.51 K, Liquid, Ebulliometric method (Recirculating still)
  vapor or sublimation pressure: 35.01 ± 0.08 kPa
[1]; 339.09 K, Liquid, Ebulliometric method (Recirculating still)
  vapor or sublimation pressure: 40.01 ± 0.08 kPa
[1]; 342.32 K, Liquid, Ebulliometric method (Recirculating still)
  vapor or sublimation pressure: 45.01 ± 0.09 kPa
[1]; 343.15 K
  surface tension liquid-gas: 19.1 ± 0.25 mN/m
[1]; 343.15 K, Liquid
  mass density: 845.67 ± 0.1 kg/m3
[1]; 345.26 K, Liquid, Ebulliometric method (Recirculating still)
  vapor or sublimation pressure: 50.01 ± 0.09 kPa
[1]; 348 K, Liquid, Ebulliometric method (Recirculating still)
  vapor or sublimation pressure: 55.01 ± 0.1 kPa
[1]; 350.53 K, Liquid, Ebulliometric method (Recirculating still)
  vapor or sublimation pressure: 60.01 ± 0.1 kPa
[1]; 352.9 K, Liquid, Ebulliometric method (Recirculating still)
  vapor or sublimation pressure: 65.01 ± 0.11 kPa
[1]; 353.15 K
  surface tension liquid-gas: 18.05 ± 0.25 mN/m
[1]; 353.15 K, Liquid
  mass density: 834.01 ± 0.1 kg/m3
[1]; 355.13 K, Liquid, Ebulliometric method (Recirculating still)
  vapor or sublimation pressure: 70.01 ± 0.11 kPa
[1]; 357.24 K, Liquid, Ebulliometric method (Recirculating still)
  vapor or sublimation pressure: 75.01 ± 0.12 kPa
[1]; 358.15 K
  surface tension liquid-gas: 17.5 ± 0.25 mN/m
[1]; 358.15 K, Liquid
  mass density: 828.13 ± 0.1 kg/m3
[1]; 359.24 K, Liquid, Ebulliometric method (Recirculating still)
  vapor or sublimation pressure: 80.01 ± 0.12 kPa
[1]; 361.13 K, Liquid, Ebulliometric method (Recirculating still)
  vapor or sublimation pressure: 85.01 ± 0.12 kPa
[1]; 362.95 K, Liquid, Ebulliometric method (Recirculating still)
  vapor or sublimation pressure: 90.01 ± 0.13 kPa
[1]; 364.69 K, Liquid, Ebulliometric method (Recirculating still)
  vapor or sublimation pressure: 95.01 ± 0.13 kPa
[1]; 366.79 K, Liquid, Ebulliometric method (Recirculating still)
  vapor or sublimation pressure: 101.33 ± 0.14 kPa
[1]; Liquid, Ebulliometric method (Recirculating still)
  Normal boiling temperature: 93.68 ± 0.22 °C
[2]
  refractive index: 1.4404 ± 0.00031

## Cc1ccc(C)o1 [2,5-dimethylfuran] + CCCCCC
[3]; x2 = 0
  mass density: 895.7 ± 0.72 kg/m3
[3]; x2 = 0.058
  mass density: 878.43 ± 0.92 kg/m3
[3]; x2 = 0.103
  mass density: 865.07 ± 0.9 kg/m3
[3]; x2 = 0.169
  mass density: 846.48 ± 0.87 kg/m3
[3]; x2 = 0.211
  mass density: 834.86 ± 0.85 kg/m3
[3]; x2 = 0.284
  mass density: 815.33 ± 0.83 kg/m3
[3]; x2 = 0.326
  mass density: 804.35 ± 0.81 kg/m3
[3]; x2 = 0.373
  mass density: 792.42 ± 0.8 kg/m3
[3]; x2 = 0.425
  mass density: 779.22 ± 0.78 kg/m3
[3]; x2 = 0.474
  mass density: 767.35 ± 0.77 kg/m3
[3]; x2 = 0.523
  mass density: 755.53 ± 0.75 kg/m3
[3]; x2 = 0.577
  mass density: 743.04 ± 0.73 kg/m3
[3]; x2 = 0.671
  mass density: 722.12 ± 0.71 kg/m3
[3]; x2 = 0.73
  mass density: 709.38 ± 0.69 kg/m3
[3]; x2 = 0.854
  mass density: 683.63 ± 0.67 kg/m3
[3]; x2 = 0.915
  mass density: 671.56 ± 0.65 kg/m3
[3]; x2 = 0.979
  mass density: 659.09 ± 0.64 kg/m3

## CCCCCC [hexane] + Cc1ccc(C)o1
[3]; x1 = 1
  mass density: 655.17 ± 0.51 kg/m3

Reference: the NIST ThermoML archive (doi:10.1021/je300631s)
